In ChEMBL document CHEMBL5500360, “Discovery of N-(4-((6-(3,5- Dimethoxyphenyl)-9H-purine derivatives as irreversible covalent FGFR inhibitors” (Eur J Med Chem, 2024):
pIC50: −log10 of the molar value.

Legend:
MDA-MB-435 = experiment: cells; conditions: Homo sapiens, MDA-MB-435, 72 h
Description: Antiproliferative activity against human MDA-MB-435 cells assessed as inhibition of cell growth incubated for 72 hrs by MTT assay

MDA-MB-231 = experiment: cells; conditions: Homo sapiens, MDA-MB-231, 72 h
KYSE-150 cell line = experiment: cells; conditions: Homo sapiens, KYSE-150, 72 h
Description: Antiproliferative activity against human KYSE-150 cells assessed as inhibition of cell growth incubated for 72 hrs by MTT assay

HepG2 = experiment: cells; conditions: Homo sapiens, HepG2, 72 h
in vitro = conditions: human
Description: Cytotoxicity against HUVEC cells assessed as inhibition of cell growth incubated for 72 hrs by MTT assay

Structure (SMILES) | pIC50 (MDA-MB-435) | pIC50 (MDA-MB-231) | pIC50 (KYSE-150 cell line) | pIC50 (HepG2) | IC50 at 72 h (in vitro; HUVEC cells) [µM] | IC50 at 72 h (in vitro; huvec) [µM]
C=CC(=O)Nc1cc(Cn2ncc3ccc(Br)cc32)ccc1F | 5.20 | 4.53 | 5.01 | 4.79 | 69.7 | 
C=CC(=O)Nc1cc(Cn2cnc3ccc(Cl)nc32)ccc1F | 4.61 | 4.59 | 4.86 | 4.61 | 64.5 | 
C=CC(=O)Nc1ccc(Cn2cnc3c(Cl)ncnc32)cc1 | 5.23 | 5.58 | 5.53 | 5.55 | 50.5 | 
CCC(=O)Nc1ccc(Cn2cnc3c(Cl)ncnc32)cc1 | 4.52 | 5.10 | 4.88 | 4.55 | 80.1 | 
C=C(C)C(=O)Nc1ccc(Cn2cnc3c(Cl)ncnc32)cc1 | 4.53 | 4.18 | 4.58 | 4.32 | 80.9 | 
C=CC(=O)Nc1ccc(Cn2cnc3c(-c4cc5ccccc5o4)ncnc32)cc1 | 4.70 | 5.19 | 4.87 | 4.91 | 79.2 | 
C=CC(=O)Nc1ccc(Cn2cnc3c(-c4ccc(F)c(F)c4)ncnc32)cc1 | 4.88 | 5.25 | 4.85 | 5.08 | 75.2 | 
C=CC(=O)Nc1ccc(C(=O)n2ccc3cc(Br)cnc32)cc1 | 4.72 | 4.61 | 4.77 | 4.40 | 75.4 | 
C=CC(=O)Nc1ccc(C(=O)n2ncc3cccnc32)cc1 | 4.47 | 4.57 | 5.01 | 4.37 | 82.2 | 
C=CC(=O)N1CC[C@@H](n2nc(C#Cc3cc(OC)cc(OC)c3)c3c(N)ncnc32)C1 | 4.79 |  | 4.75 |  |  | 63.6
C=CC(=O)Nc1ccc(C(=O)n2ccc3cc(Cl)cnc32)cc1 | 4.73 | 4.46 | 4.97 | 4.35 | 80.4 | 
C=CC(=O)Nc1cc(Cn2cnc3c(Cl)ncnc32)ccc1F | 5.25 | 5.00 | 5.42 | 4.80 | 71.4 | 
C=CC(=O)Nc1ccc(Cn2cnc3c(-c4cc5ccccc5s4)ncnc32)cc1 | 4.95 | 4.86 | 5.08 | 5.03 | 79.1 | 
O=C(Nc1ccc(Cn2cnc3c(Cl)ncnc32)cc1)C1CC1 | 4.50 | 5.02 | 4.97 | 4.57 | 81.2 | 
C=CC(=O)Nc1ccc(C(=O)n2ccc3c(Cl)ncnc32)cc1 | 5.00 | 4.53 | 4.99 | 4.40 | 56.1 | 
C=CC(=O)Nc1cc(Cn2ccc3ccc(Br)cc32)ccc1F | 4.61 | 5.14 | 5.14 | 4.95 | 76.5 | 
